What was measured:
[1] = test system: TNF-α production in THP-1 cells; assay: Inhibitory activity of TNF-α production in LPS-stimulated THP-1 cells; assay type: cell-based; conditions: Homo sapiens, LPS 5 μg/mL, 4 hours, TNF-α by ELISA, read-out: IC50 (concentration inhibiting 50% of TNF-α production)
Protocol: Measurement of Inhibitory Activity of TNF-α Production
THP-1 cells cultured in a PRMI 1640 medium (Life Technologies, Inc., USA) containing 1% inactivated fetal bovine serum (Life Technologies, Inc.) and 10 mM HEPES (pH 7.5) were inoculated on a 96 well plate to give 1×10^5 cells/well, then, 1 μL of a sample compound dissolved in DMSO was added. After incubation for 1 hour at 37° C. in a CO2 incubator, LPS (Wako Pure Chemical Industries Ltd.) was added to give a final concentration of 5 μg/mL. After incubation for 4 hours at 37° C. in a CO2 incubator, the supernatant was obtained by centrifugal separation. The TNF-α concentration in the supernatant was measured by ELISA (R&D Systems, Quantikine Kit). The concentration (IC50 value) of a sample compound necessary for inhibiting 50% of TNF-α production was calculated by PRISM 2.01 (GraphPad Software).

human p38 MAP kinase = molecular target: T1, human p38 MAP kinase (Homo sapiens, UniProt Q16539); assay: p38 MAP kinase inhibition, 32P incorporation into Myelin Basic Protein; assay type: biochemical; conditions: active type p38 MAP kinase, Myelin Basic Protein substrate, 60 minutes at 30° C.; read-out: IC50 (concentration inhibiting 50% of 32P incorporation into the acid insoluble fraction)
T1 construct: FLAG (N); made in house; host or cells: Sf-21 insect cells, co-infected with baculoviruses BAC-HP38 and BAC-caMKK3
T1 sequence (Q16539 whole entry): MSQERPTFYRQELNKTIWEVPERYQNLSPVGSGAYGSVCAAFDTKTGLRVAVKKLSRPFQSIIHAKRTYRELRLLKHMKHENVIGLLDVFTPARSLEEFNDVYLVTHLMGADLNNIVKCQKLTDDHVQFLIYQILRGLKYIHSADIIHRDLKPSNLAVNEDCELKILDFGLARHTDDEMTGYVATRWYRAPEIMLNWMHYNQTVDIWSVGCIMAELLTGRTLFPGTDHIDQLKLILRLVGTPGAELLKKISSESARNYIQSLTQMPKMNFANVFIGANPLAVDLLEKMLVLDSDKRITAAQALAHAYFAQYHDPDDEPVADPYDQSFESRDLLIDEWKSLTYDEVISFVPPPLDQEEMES
Protocol: (1) Cloning of Human p38 MAP Kinase Gene and Preparation of Recombinant Baculovirus
(3) Preparation of Active Type p38 MAP Kinase
Sf-21 cells were inoculated on 100 mL Sf-900II SF medium (GIBCOBRL) to give 1×10^6 cells/mL, then, cultured for 24 hours at 27° C. Each 0.2 mL of virus stocks BAC-HP38 and BAC-caMKK3 of the recombinant baculovirus were added, then, cultured for further 48 hours. Cells were separated from the culture solution by centrifugal separation (3000 rpm, 10 min.), then, washed with PBS twice. The cells were suspended in 10 mL of Lysis buffer (25 mM HEPES (pH7.5), 1% TritonX, 130 mM NaCl, 1 mM EDTA, 1 mM DTT, 25 mM β-glycerophosphate, […], 1 mM APMSF, 1 mM Sodium orthovanadate), then, treatment by Homogenizer (POLYTRON) for 2 minutes at 20000 rpm was performed twice to lyse the cells. […]
(4) To 37.5 μL of a reaction solution (25 mM HEPES (pH 7.5), 10 mM Magnesium Acetate) containing 260 ng of active type p38 MAP kinase and 1 μg of Myelin Basic Protein was added 2.5 μL of a sample compound dissolved in DMSO, then, the mixture was kept at 30° C. for 5 minutes. […] After drying for 60 minutes at 45° C., 40 μL of Microscint 0 (Packard Japan) was added, and radiation activity was measured by Top Counter (Packard Japan). […]

SMILES: CCc1nc(-c2cccc(Cl)c2)c(-c2ccnc(NC(C)=O)c2)s1 [Example 30-2, N-[4-[4-(3-chlorophenyl)-2-ethyl-1,3-thiazol-5-yl]-2-pyridyl]acetamide]
- IC50 [1]: 120 nM

SMILES: CCc1nc(-c2cccc(Cl)c2)c(-c2ccnc(NC3CCCCC3)c2)s1 [Example 36-10, 4-[4-(3-chlorophenyl)-2-ethyl-1,3-thiazol-5-yl]-N-cyclohexyl-2-pyridylamine]
- IC50 [1]: 55 nM

SMILES: Cc1cccc(-c2nc(N(C)C(=O)c3ccc(C)nc3)sc2-c2ccnc(NC3CCCC3)c2)c1 [Example 46-4]
- melting point: 176 to 177 °C
- IC50 [1]: 82 nM
- IC50 (human p38 MAP kinase): 17 nM

SMILES: CCC(=O)Nc1cc(-c2sc(-c3ccc(S(C)(=O)=O)cc3)nc2-c2cccc(Cl)c2)ccn1 [Example 58-7, N-[4-[4-(3-chlorophenyl)-2-(4-methylsulfonylphenyl)-1,3-thiazol-5-yl]-2-pyridyl]propionamide]
- IC50 [1]: 21 nM

SMILES: Cc1cccc(-c2nc(NC(=O)NOc3ccccc3)sc2-c2ccnc(C)c2)c1 [Example Compound 64, N-[4-(3-methylphenyl)-5-(2-methyl-4-pyridyl)-1,3-thiazol-2-yl]-N′-phenyloxyurea]
- melting point: 154 to 155 °C

SMILES: Cc1cccc(-c2nc(N3CCNC3=O)sc2-c2ccnc(C)c2)c1 [Example Compound 66, 1-[4-(3-methylphenyl)-5-(2-methyl-4-pyridyl)-1,3-thiazol-2-yl]imidazolidin-2-one]
- melting point: 200 to 201 °C

SMILES: Cc1cccc(-c2nc(-c3ccc(S(C)(=O)=O)cc3)sc2-c2cc[n+]([O-])c(C)c2)c1 [Example Compound 68-1, 4-[4-(3-methylphenyl)-2-(4-methylsulfonylphenyl)-1,3-thiazol-5-yl]-2-methylpyridine N-oxide]
- melting point: 197 to 198 °C

SMILES: CCc1nc(-c2cccc(Br)c2)c(-c2ccnc(NC(=O)OC(C)(C)C)c2)s1 [Example Compound 75-1, 4-(3-bromophenyl)-5-[2-(tert-butoxycarbonylamino)-4-pyridyl]-2-ethyl-1,3-thiazole]
- melting point: 172 to 174 °C

SMILES: CCc1nc(-c2cccc(Br)c2)c(-c2ccnc(N)c2)s1 [Example Compound 75-2, 4-[4-(3-bromophenyl)-2-ethyl-1,3-thiazol-5-yl]-2-pyridylamine]
- melting point: 132 to 134 °C

SMILES: CCc1nc(-c2ccccc2)c(-c2ccnc(NC(=O)OC(C)(C)C)c2)s1 [Example Compound 79-1, 5-[2-(tert-butoxycarbonylamino)-4-pyridyl]-2-ethyl-4-phenyl-1,3-thiazole]
- melting point: 154 to 155 °C

SMILES: CCc1nc(-c2ccccc2)c(-c2ccnc(NC(C)=O)c2)s1 [Example Compound 82-1, N-[4-(2-ethyl-4-phenyl-1,3-thiazol-5-yl)-2-pyridyl]acetamide]
- melting point: 175 to 176 °C

— US7495018B2, “Substituted 1,3-thiazole compounds, their production and use” (Takeda Pharmaceutical Company Limited, priority 2000, dated 2009)
